# Laboratory results published in ChEMBL document CHEMBL3232814, “Synthesis and anticancer structure activity relationship investigation of cationic anthraquinone analogs” (2014).
# Key:
# Format in all cases: functional
# [1] = test system: M14; assay: Growth inhibition of human M14 cells; conditions: for CC50: read-out: LC50 (the source's name)
# [2] = Growth inhibition of human NCI60 cells assessed as cell growth; parameters: concentration or dose not given beside the values
# [3] = Growth inhibition of human SF295 cells; conditions: SF-295
# [4] = test system: HT-29; assay: Growth inhibition of human HT-29 cells
# [5] = test system: HCT-116; assay: Growth inhibition of human HCT116 cells; conditions: for CC50: read-out: LC50 (the source's name)
# [6] = test system: SK-MEL-5; assay: Growth inhibition of human SK-MEL-5 cells
# [7] = test system: NCI-H460; assay: Growth inhibition of human NCI-H460 cells; conditions: for CC50: read-out: LC50 (the source's name)
# [8] = test system: NCI-H23; assay: Growth inhibition of human NCI-H23 cells; conditions: for CC50: read-out: LC50 (the source's name)
# [9] = test system: NCI-H226; assay: Growth inhibition of human NCI-H226 cells; conditions: for CC50: read-out: LC50 (the source's name)
# [10] = test system: NCI-H322M; assay: Growth inhibition of human NCI-H322M cells; conditions: for CC50: read-out: LC50 (the source's name)
# [11] = test system: SW-620; assay: Growth inhibition of human SW620 cells; conditions: for CC50: read-out: LC50 (the source's name)
# [12] = Growth inhibition of human UACC62 cells; conditions: for GI50: UACC-62; for CC50: UACC-62, read-out: LC50 (the source's name)
# [13] = Growth inhibition of human SF539 cells; conditions: for GI50: SF-539; for CC50: SF-539, read-out: LC50 (the source's name)
# [14] = test system: SK-MEL-2; assay: Growth inhibition of human SK-MEL-2 cells; conditions: for CC50: read-out: LC50 (the source's name)
# [15] = Growth inhibition of human UACC257 cells; conditions: for GI50: UACC-257; for CC50: UACC-257, read-out: LC50 (the source's name)
# [16] = Growth inhibition of human HCC2998 cells; conditions: for GI50: HCC 2998; for CC50: HCC 2998, read-out: LC50 (the source's name)
# [17] = test system: SF-268; assay: Growth inhibition of human SF268 cells; conditions: for CC50: read-out: LC50 (the source's name)
# [18] = test system: NCI-H522; assay: Growth inhibition of human NCI-H522 cells; conditions: for CC50: read-out: LC50 (the source's name)
# [19] = test system: MDA-MB-435; assay: Growth inhibition of human MDA-MB-435 cells; conditions: for CC50: read-out: LC50 (the source's name)
# [20] = test system: HOP-62; assay: Growth inhibition of human HOP62 cells; conditions: for CC50: read-out: LC50 (the source's name)
# [21] = test system: A549; assay: Growth inhibition of human A549 cells; conditions: for CC50: read-out: LC50 (the source's name)
# [22] = test system: SNB-19; assay: Growth inhibition of human SNB19 cells
# [23] = Growth inhibition of human EKVX cells; conditions: for CC50: read-out: LC50 (the source's name)
# [24] = test system: COLO 205; assay: Growth inhibition of human COLO205 cells; conditions: for CC50: read-out: LC50 (the source's name)
# [25] = Growth inhibition of human LOXIMVI cells; conditions: LOX IMVI; for CC50: read-out: LC50 (the source's name)
# [26] = Growth inhibition of human HOP92 cells; conditions: for GI50: HOP-92; for CC50: HOP-92, read-out: LC50 (the source's name)
# [27] = test system: U-251; assay: Growth inhibition of human U251 cells
# [28] = test system: Malme-3M; assay: Growth inhibition of human MALME-3M cells; conditions: for CC50: read-out: LC50 (the source's name)
# [29] = test system: KM12; assay: Growth inhibition of human KM12 cells; conditions: for CC50: read-out: LC50 (the source's name)
# [30] = test system: SNB-75; assay: Growth inhibition of human SNB75 cells; conditions: for CC50: read-out: LC50 (the source's name)
# [31] = Growth inhibition of human HCT15 cells; conditions: for GI50: HCT-15; for CC50: HCT-15, read-out: LC50 (the source's name)
# [32] = test system: SK-MEL-28; assay: Growth inhibition of human SK-MEL-28 cells; conditions: for CC50: read-out: LC50 (the source's name)
# [33] = test system: Staphylococcus aureus; assay: Antimicrobial activity against Staphylococcus aureus ATCC 25923 after 12 to 18 hrs by 2-fold serial dilution method
compound,measurement,setting,value
C[n+]1nn(-c2ccc(C(F)(F)F)cc2)c2c1C(=O)c1ccccc1C2=O.O=S(=O)([O-])C(F)(F)F,GI50,[1],0.54 µM
same,CC50,[1],4.38 µM
same,Activity,[2],58.69%
same,GI50,[3],0.54 µM
same,LC50 (concentration killing 50% of cells),[3],6.74 µM
same,GI50,[4],4.1 µM
same,LC50,[4],> 100 µM
same,GI50,[5],3.42 µM
same,CC50,[5],41.9 µM
same,GI50,[6],0.16 µM
same,LC50 (lethal concentration 50),[6],0.57 µM
same,GI50,[7],1.4 µM
same,CC50,[7],7.77 µM
same,GI50,[8],0.36 µM
same,CC50,[8],5.33 µM
same,GI50,[9],10.1 µM
same,CC50,[9],89.4 µM
same,GI50,[10],0.83 µM
same,CC50,[10],4.86 µM
same,GI50,[11],14 µM
same,CC50,[11],64.3 µM
same,GI50,[12],1.67 µM
same,CC50,[12],30.6 µM
same,GI50,[13],4.68 µM
same,CC50,[13],46.7 µM
same,GI50,[14],12.5 µM
same,CC50,[14],> 100 µM
same,GI50,[15],3.24 µM
same,CC50,[15],43.1 µM
same,GI50,[16],1.52 µM
same,CC50,[16],12.9 µM
same,GI50,[17],18.7 µM
same,CC50,[17],> 100 µM
same,GI50,[18],14.3 µM
same,CC50,[18],68.2 µM
same,GI50,[19],1.09 µM
same,CC50,[19],7.28 µM
same,GI50,[20],2.12 µM
same,CC50,[20],26 µM
same,GI50,[21],0.86 µM
same,CC50,[21],> 100 µM
same,GI50,[22],1.45 µM
same,LC50,[22],6.54 µM
same,GI50,[23],23.4 µM
same,CC50,[23],> 100 µM
same,GI50,[24],1.32 µM
same,CC50,[24],5.73 µM
same,GI50,[25],2.68 µM
same,CC50,[25],36.8 µM
same,GI50,[26],> 100 µM
same,CC50,[26],> 100 µM
same,GI50,[27],14 µM
same,LC50,[27],56.8 µM
same,GI50,[28],1.84 µM
same,CC50,[28],9.35 µM
same,GI50,[29],8.17 µM
same,CC50,[29],55.9 µM
same,GI50,[30],1.07 µM
same,CC50,[30],11.2 µM
same,GI50,[31],3.48 µM
same,CC50,[31],84 µM
same,GI50,[32],12.8 µM
same,CC50,[32],56.5 µM
C[n+]1nn(-c2ccc(Cl)cc2)c2c1C(=O)c1ccccc1C2=O.O=S(=O)([O-])C(F)(F)F,Activity,[2],101.7%
C[n+]1nn(-c2ccc(F)cc2)c2c1C(=O)c1ccccc1C2=O.O=S(=O)([O-])C(F)(F)F,GI50,[1],0.34 µM
same,CC50,[1],3.89 µM
same,Activity,[2],43.38%
same,GI50,[3],0.58 µM
same,LC50 (concentration killing 50% of cells),[3],4.94 µM
same,GI50,[4],2.51 µM
same,LC50,[4],48 µM
same,GI50,[5],1.5 µM
same,CC50,[5],8.19 µM
same,GI50,[6],0.17 µM
same,LC50 (lethal concentration 50),[6],0.6 µM
same,GI50,[7],0.63 µM
same,CC50,[7],9 µM
same,GI50,[8],0.82 µM
same,CC50,[8],7.25 µM
same,GI50,[9],2.26 µM
same,CC50,[9],23 µM
same,GI50,[10],0.45 µM
same,CC50,[10],4.22 µM
same,GI50,[11],6.12 µM
same,CC50,[11],47.5 µM
same,GI50,[12],1.55 µM
same,CC50,[12],7.67 µM
same,GI50,[13],1.83 µM
same,CC50,[13],8.4 µM
same,GI50,[14],2.27 µM
same,CC50,[14],33.7 µM
same,GI50,[15],0.6 µM
same,CC50,[15],6.93 µM
same,GI50,[16],1.4 µM
same,CC50,[16],8.22 µM
same,GI50,[17],3.67 µM
same,CC50,[17],46 µM
same,GI50,[18],12.1 µM
same,CC50,[18],53.8 µM
same,GI50,[19],0.26 µM
same,CC50,[19],2.21 µM
same,GI50,[20],2.4 µM
same,CC50,[20],32.9 µM
same,GI50,[21],0.67 µM
same,CC50,[21],5.46 µM
same,GI50,[22],1.37 µM
same,LC50,[22],5.88 µM
same,GI50,[23],3.28 µM
same,CC50,[23],62 µM
same,GI50,[24],0.35 µM
same,CC50,[24],3.54 µM
same,GI50,[25],1.35 µM
same,CC50,[25],8.17 µM
same,GI50,[26],10.7 µM
same,CC50,[26],> 100 µM
same,GI50,[27],7.86 µM
same,LC50,[27],45.3 µM
same,GI50,[28],0.35 µM
same,CC50,[28],4.75 µM
same,GI50,[29],2.4 µM
same,CC50,[29],33.5 µM
same,GI50,[30],1.94 µM
same,CC50,[30],7.17 µM
same,GI50,[31],3.72 µM
same,CC50,[31],50.9 µM
same,GI50,[32],4.27 µM
same,CC50,[32],45.9 µM
COc1cc(OC)cc(-n2n[n+](C)c3c2C(=O)c2ccccc2C3=O)c1.O=S(=O)([O-])C(F)(F)F,GI50,[1],0.5 µM
same,CC50,[1],4.37 µM
same,Activity,[2],23.23%
same,GI50,[3],0.18 µM
same,LC50 (concentration killing 50% of cells),[3],0.61 µM
same,GI50,[4],1.1 µM
same,LC50,[4],> 100 µM
same,GI50,[5],2.66 µM
same,CC50,[5],48.6 µM
same,GI50,[6],0.18 µM
same,LC50 (lethal concentration 50),[6],0.66 µM
same,GI50,[7],0.56 µM
same,CC50,[7],8.01 µM
same,GI50,[8],1.26 µM
same,CC50,[8],> 100 µM
same,GI50,[9],1.74 µM
same,CC50,[9],7.76 µM
same,GI50,[10],0.36 µM
same,CC50,[10],3.68 µM
same,GI50,[11],3 µM
same,CC50,[11],> 100 µM
same,MIC,[33],16 µg/mL
same,GI50,[12],1.41 µM
same,CC50,[12],5.89 µM
same,GI50,[13],1.64 µM
same,CC50,[13],5.6 µM
same,GI50,[14],2.08 µM
same,CC50,[14],12.4 µM
same,GI50,[15],1.2 µM
same,CC50,[15],5.3 µM
same,GI50,[16],1.5 µM
same,CC50,[16],8.99 µM
same,GI50,[17],3.68 µM
same,CC50,[17],> 100 µM
same,GI50,[18],2.54 µM
same,CC50,[18],29.2 µM
same,GI50,[19],0.31 µM
same,GI50,[20],1.51 µM
same,CC50,[20],6.08 µM
same,GI50,[21],0.78 µM
same,CC50,[21],8.81 µM
same,GI50,[22],1.25 µM
same,LC50,[22],5.1 µM
same,GI50,[24],0.4 µM
same,CC50,[24],5.35 µM
same,GI50,[25],1.71 µM
same,CC50,[25],7.09 µM
same,GI50,[26],7.07 µM
same,CC50,[26],> 100 µM
same,GI50,[27],1.53 µM
same,LC50,[27],5.54 µM
same,GI50,[28],0.41 µM
same,CC50,[28],3.72 µM
same,GI50,[29],3.11 µM
same,CC50,[29],42.9 µM
same,GI50,[30],1.63 µM
same,CC50,[30],5.47 µM
same,GI50,[31],1.61 µM
same,GI50,[32],3.2 µM
same,CC50,[32],43.3 µM
